Results on 13 compounds are retold here after PubChem BioAssay AID272 (DTP/NCI, 2004).

The test system of this assay is Lewis lung carcinoma i.m., BDF1 mice, T/C %. Kind of assay: NCI In Vivo Anticancer Drug Screen. Data for tumor model Lewis Lung Carcinoma (intramuscular) in B6D2F1 (BDF1) mice. As for the experimental part:
The antitumor activity of compounds was measured in mice bearing transplantable tumors. Survival or tumor size were measured and the results are expressed as the measurement made in the treated group (T) divided by the measurement made in the vehicle treated control group (C). The tumor model used in this assay is Lewis Lung Carcinoma (intramuscular) in B6D2F1 (BDF1) mice

[1] abbreviates: endpoint: median survival time, dose: 25.0 mg/kg/injection, schedule: Q01DX011 (ip), vehicle: saline with Tween-80, higher = longer survival.
Where [2] appears, read: endpoint: median survival time, dose: 50.0 mg/kg/injection, schedule: Q01DX011 (ip), vehicle: saline with Tween-80, higher = longer survival.
[3] abbreviates: endpoint: median survival time, dose: 2.0 mg/kg/injection, schedule: Q01DX011 (ip), vehicle: saline, higher = longer survival.

Each structure is given as a SMILES string. “And” between values parts separate entries of the source, which are not always exact repeats. Equal entries are not always repeated. Inconclusive results are not listed. Residues, ends and D or L forms follow the SMILES beside them. *: point of attachment. Trt = c1ccc(C(c2ccccc2)(c2ccccc2)*)cc1; Bn = c1ccc(C*)cc1

Regarding `NC(C(=O)O)C(F)(F)C(=O)O` (centres undefined), the T/C reads like this: (endpoint: median survival time, dose: 3.12 mg/kg/injection, schedule: Q01DX011 (ip), vehicle: saline, higher = longer survival) 109 % of control; (endpoint: median survival time, dose: 6.25 mg/kg/injection, schedule: Q01DX011 (ip), vehicle: saline, higher = longer survival) 100 % of control; (endpoint: median survival time, dose: 12.5 mg/kg/injection, schedule: Q01DX011 (ip), vehicle: saline, higher = longer survival) 104 % of control.

With `Nc1nc(Cl)nc2c1ncn2C1OC(CO)C(O)C1O` (centres undefined), the T/C is 72 % of control (endpoint: mean tumor weight (est.), dose: 25.0 mg/kg/injection, schedule: Q01DX011 (ip), vehicle: saline with Tween-80, higher = larger tumour); 72 % of control (endpoint: mean tumor weight (est.), dose: 50.0 mg/kg/injection, schedule: Q01DX011 (ip), vehicle: saline with Tween-80, higher = larger tumour); 36 % of control (endpoint: mean tumor weight (est.), dose: 100.0 mg/kg/injection, schedule: Q01DX011 (ip), vehicle: saline with Tween-80, higher = larger tumour); 102 % of control under setting [1]; 93 % of control under setting [2].

`CCOC(=O)c1nc(C)[nH]c(=O)c1C`: the T/C was 94 % of control (endpoint: median survival time, dose: 4.0 mg/kg/injection, schedule: Q01DX009 (ip), vehicle: water, higher = longer survival); 109 % of control (endpoint: median survival time, dose: 8.0 mg/kg/injection, schedule: Q01DX009 (ip), vehicle: water, higher = longer survival); 104 % of control (endpoint: median survival time, dose: 16.0 mg/kg/injection, schedule: Q01DX009 (ip), vehicle: water, higher = longer survival); 100 % of control (endpoint: median survival time, dose: 64.0 mg/kg/injection, schedule: Q01DX009 (ip), vehicle: water, higher = longer survival).

Regarding `O=[N+]([O-])c1cc([N+](=O)[O-])c(Nn2c3ccccc3c3ccccc32)c([N+](=O)[O-])c1`, the T/C was 97 % of control (endpoint: median survival time, dose: 12.5 mg/kg/injection, schedule: Q01DX011 (ip), vehicle: saline with Tween-80, higher = longer survival); 102 % of control under setting [1]; 108 % of control under setting [2].

As to `S=P(N1CC1)(N1CC1)N1CC1`, the T/C is, setting by setting: (endpoint: median survival time, dose: 1.5 mg/kg/injection, schedule: Q01DX011 (ip), vehicle: water, higher = longer survival) 92 % of control; (endpoint: median survival time, dose: 3.0 mg/kg/injection, schedule: Q01DX011 (ip), vehicle: water, higher = longer survival) 110 % of control and 119 % of control; (endpoint: median survival time, dose: 6.0 mg/kg/injection, schedule: Q01DX011 (ip), vehicle: water, higher = longer survival) 86 % of control.

In the case of `COC(=O)C(CSC(c1ccccc1)(c1ccccc1)c1ccccc1)NC(=O)C(CSCc1ccccc1)NC(C)=O` (centres undefined) (Ac-Cys(Bn)-Cys(Trt)-OMe; configuration not given here), the T/C was 165 % of control (endpoint: median survival time, dose: 8.0 mg/kg/injection, schedule: Q01DX009 (ip), vehicle: Klucel (hydroxypropylcellulose) (HPC), higher = longer survival); 121 % of control (endpoint: median survival time, dose: 32.0 mg/kg/injection, schedule: Q01DX009 (ip), vehicle: Klucel (hydroxypropylcellulose) (HPC), higher = longer survival); 121 % of control (endpoint: median survival time, dose: 64.0 mg/kg/injection, schedule: Q01DX009 (ip), vehicle: Klucel (hydroxypropylcellulose) (HPC), higher = longer survival).

As for `Cc1cc2nc(CBr)c(CBr)nc2cc1C`, the T/C runs as follows: (endpoint: mean tumor weight (est.), dose: 0.75 mg/kg/injection, schedule: Q01DX011 (ip), vehicle: saline with Tween-80, higher = larger tumour) 87 % of control; (endpoint: mean tumor weight (est.), dose: 1.5 mg/kg/injection, schedule: Q01DX011 (ip), vehicle: saline with Tween-80, higher = larger tumour) 76 % of control; (endpoint: mean tumor weight (est.), dose: 3.0 mg/kg/injection, schedule: Q01DX011 (ip), vehicle: saline with Tween-80, higher = larger tumour) 67 % of control; (endpoint: mean tumor weight (est.), dose: 6.0 mg/kg/injection, schedule: Q01DX011 (ip), vehicle: saline with Tween-80, higher = larger tumour) 48 % of control; (endpoint: median survival time, dose: 0.75 mg/kg/injection, schedule: Q01DX011 (ip), vehicle: saline with Tween-80, higher = longer survival) 100 % of control; (endpoint: median survival time, dose: 1.5 mg/kg/injection, schedule: Q01DX011 (ip), vehicle: saline with Tween-80, higher = longer survival) 101 % of control. Moreover, the T/C by setting is: (endpoint: median survival time, dose: 3.0 mg/kg/injection, schedule: Q01DX011 (ip), vehicle: saline with Tween-80, higher = longer survival) 86 % of control; (endpoint: median survival time, dose: 6.0 mg/kg/injection, schedule: Q01DX011 (ip), vehicle: saline with Tween-80, higher = longer survival) 107 % of control.

For `Cc1c(N)nc(C(CC(N)=O)NCC(N)C(N)=O)nc1C(=O)NC(C(=O)NC(C)C(O)C(C)C(=O)NC(C(=O)NCCc1nc(-c2nc(C(=O)NCCCNCCCCN)cs2)cs1)C(C)O)C(OC1OC(CO)C(O)C(O)C1OC1OC(CO)C(O)C(OC(N)=O)C1O)c1cnc[nH]1` (centres undefined), the T/C reads like this: (endpoint: median survival time, dose: 3.9 mg/kg/injection, schedule: Q01DX011 (ip), vehicle: saline, higher = longer survival) 120 % of control; (endpoint: median survival time, dose: 10.8 mg/kg/injection, schedule: Q01DX011 (ip), vehicle: saline, higher = longer survival) 150 % of control; (endpoint: median survival time, dose: 18.0 mg/kg/injection, schedule: Q01DX011 (ip), vehicle: saline, higher = longer survival) 152 % of control.

As for `COC12C(COC(N)=O)C3=C(C(=O)C(C)=C(N)C3=O)N1CC1C2N1C` (centres undefined), the T/C was 92 % of control and 105 % of control (endpoint: median survival time, dose: 2.0 mg/kg/injection, schedule: Q01DX009 (ip), vehicle: Klucel (hydroxypropylcellulose) (HPC), higher = longer survival); 101 % of control and 111 % of control (endpoint: median survival time, dose: 2.0 mg/kg/injection, schedule: Q01DX011 (ip), vehicle: saline + alcohol, higher = longer survival); 100 % of control and 106 % of control (endpoint: median survival time, dose: 4.0 mg/kg/injection, schedule: Q01DX009 (ip), vehicle: Klucel (hydroxypropylcellulose) (HPC), higher = longer survival); 105 % of control (endpoint: median survival time, dose: 4.0 mg/kg/injection, schedule: Q01DX011 (ip), vehicle: saline + alcohol, higher = longer survival).

Take `CC[C@](O)(C(=O)O)c1cc2n(c(=O)c1CO)Cc1cc3ccccc3nc1-2`: the T/C is 95 % of control (endpoint: mean tumor weight, dose: 0.06 mg/kg/injection, schedule: Q01DX011 (ip), vehicle: saline, higher = larger tumour); 96 % of control (endpoint: mean tumor weight, dose: 0.12 mg/kg/injection, schedule: Q01DX011 (ip), vehicle: saline, higher = larger tumour); 101 % of control (endpoint: mean tumor weight, dose: 0.25 mg/kg/injection, schedule: Q01DX011 (ip), vehicle: saline, higher = larger tumour); 91 % of control (endpoint: mean tumor weight, dose: 0.5 mg/kg/injection, schedule: Q01DX011 (ip), vehicle: saline, higher = larger tumour); 106 % of control (endpoint: mean tumor weight, dose: 1.0 mg/kg/injection, schedule: Q01DX011 (ip), vehicle: saline, higher = larger tumour); 105 % of control (endpoint: median survival time, dose: 0.06 mg/kg/injection, schedule: Q01DX011 (ip), vehicle: saline, higher = longer survival). The T/C is 116 % of control (endpoint: median survival time, dose: 0.12 mg/kg/injection, schedule: Q01DX011 (ip), vehicle: saline, higher = longer survival); 118 % of control (endpoint: median survival time, dose: 0.5 mg/kg/injection, schedule: Q01DX011 (ip), vehicle: saline, higher = longer survival); 102 % of control and 113 % of control and 124 % of control (endpoint: median survival time, dose: 1.0 mg/kg/injection, schedule: Q01DX011 (ip), vehicle: saline, higher = longer survival); 214 % of control under setting [3].

`NC(Cc1c[nH]c2ccc(N(CCCl)CCCl)cc12)C(=O)O` (centres undefined): the T/C runs as follows: (endpoint: mean tumor weight, dose: 0.06 mg/kg/injection, schedule: Q01DX011 (ip), vehicle: other, higher = larger tumour) 90 % of control; (endpoint: mean tumor weight, dose: 0.12 mg/kg/injection, schedule: Q01DX011 (ip), vehicle: other, higher = larger tumour) 96 % of control; (endpoint: mean tumor weight, dose: 0.25 mg/kg/injection, schedule: Q01DX011 (ip), vehicle: other, higher = larger tumour) 105 % of control; (endpoint: mean tumor weight, dose: 0.5 mg/kg/injection, schedule: Q01DX011 (ip), vehicle: other, higher = larger tumour) 97 % of control; (endpoint: mean tumor weight, dose: 1.0 mg/kg/injection, schedule: Q01DX011 (ip), vehicle: other, higher = larger tumour) 83 % of control; (endpoint: mean tumor weight, dose: 2.0 mg/kg/injection, schedule: Q01DX011 (ip), vehicle: other, higher = larger tumour) 103 % of control. The T/C runs as follows: (endpoint: median survival time, dose: 0.06 mg/kg/injection, schedule: Q01DX011 (ip), vehicle: other, higher = longer survival) 94 % of control; (endpoint: median survival time, dose: 0.12 mg/kg/injection, schedule: Q01DX011 (ip), vehicle: other, higher = longer survival) 102 % of control; (endpoint: median survival time, dose: 0.25 mg/kg/injection, schedule: Q01DX011 (ip), vehicle: acid diluted with saline, higher = longer survival) 89 % of control; (endpoint: median survival time, dose: 0.25 mg/kg/injection, schedule: Q01DX011 (ip), vehicle: other, higher = longer survival) 86 % of control; (endpoint: median survival time, dose: 0.5 mg/kg/injection, schedule: Q01DX011 (ip), vehicle: acid diluted with saline, higher = longer survival) 105 % of control; (endpoint: median survival time, dose: 0.5 mg/kg/injection, schedule: Q01DX011 (ip), vehicle: other, higher = longer survival) 96 % of control. Moreover, the T/C (endpoint: median survival time, dose: 1.0 mg/kg/injection, schedule: Q01DX011 (ip), vehicle: other, higher = longer survival) was 104 % of control.

Regarding `CCCCCCCCCCCC[S+](C)C`, the T/C under setting [3] was 100 % of control and the T/C (endpoint: median survival time, dose: 4.0 mg/kg/injection, schedule: Q01DX011 (ip), vehicle: saline, higher = longer survival) was 114 % of control.

`O=c1[nH]cc(F)c(=O)n1C1OC(CO)C(O)C1O` (centres undefined): the T/C runs as follows: (endpoint: mean tumor weight (est.), dose: 75.0 mg/kg/injection, schedule: Q01DX011 (ip), vehicle: saline, higher = larger tumour) 67 % of control; (endpoint: mean tumor weight (est.), dose: 150.0 mg/kg/injection, schedule: Q01DX011 (ip), vehicle: saline, higher = larger tumour) 99 % of control; (endpoint: mean tumor weight (est.), dose: 300.0 mg/kg/injection, schedule: Q01DX011 (ip), vehicle: saline, higher = larger tumour) 106 % of control; (endpoint: mean tumor weight (est.), dose: 600.0 mg/kg/injection, schedule: Q01DX011 (ip), vehicle: saline, higher = larger tumour) 82 % of control; (endpoint: mean tumor weight (est.), dose: 1200.0 mg/kg/injection, schedule: Q01DX011 (ip), vehicle: saline, higher = larger tumour) 84 % of control; (endpoint: median survival time, dose: 75.0 mg/kg/injection, schedule: Q01DX011 (ip), vehicle: saline, higher = longer survival) 107 % of control. In addition, the T/C (endpoint: median survival time, dose: 600.0 mg/kg/injection, schedule: Q01DX011 (ip), vehicle: saline, higher = longer survival) was 98 % of control and the T/C (endpoint: median survival time, dose: 1200.0 mg/kg/injection, schedule: Q01DX011 (ip), vehicle: saline, higher = longer survival) was 107 % of control.
